# Source: ChEMBL document CHEMBL6182942, “Discovery of a Selective, Novel TGF-βR1 Inhibitor GFH018 for the Treatment of Solid Tumors” (J Med Chem, 2025)
# The source made the active and inactive calls. No cut-off for these calls is given here.
# Columns and labels:
# [1] = tested on: 4T1-Luc; experiment: Antimetastatic activity against mouse 4T1-Luc cells implanted in BALB/c mouse assessed as reduction in metastatic rate in spleen at 100 mg/kg, po administered daily for 32 days and measured on day 30 to 35 by IVIS fluorescence analysis; format: functional, organism-based; conditions: time 35.0 day
# [2] = Oral bioavailability in Sprague-Dawley rat at 30 mg/kg administered via gavage by LC-MS/MS analysis; format: ADME, organism-based; conditions: in vivo
# [3] = AUC (0 to last) in Beagle dog at 5 mg/kg, po by LC-MS/MS analysis; format: ADME, organism-based, Canis lupus familiaris; conditions: in vivo
# [4] = Drug metabolism in dog liver microsomes; format: ADME, Canis lupus familiaris, Microsome
# [5] = Drug metabolism in rat liver microsomes; format: ADME, Microsome
# [6] = Mutagenicity in Salmonella typhimurium TA98 in presence of liver S9 fraction by Ames test; format: toxicity, subcellular; conditions: salmonella enterica subsp. enterica serovar typhimurium
# [7] = Metabolic stability in human liver microsomes assessed as parent compound remaining at 1 uM preincubated for 5 mins followed by NADPH addition by LC-MS/MS analysis; format: ADME, Microsome; conditions: read-out: Stability
# [8] = Half life in Sprague-Dawley rat at 30 mg/kg, po administered via gavage by LC-MS/MS analysis; format: ADME, organism-based; conditions: in vivo
# [9] = target: Activin receptor type-1B (Homo sapiens) (UniProt P36896); experiment: Inhibition of ALK4 (unknown origin) assessed as residual activity at 1 uM relative to control
# [10] = Toxicity in mouse CT26 cell implanted BALB/c mouse assessed as change in body weight at 50 mg/kg, po administered twice daily; format: organism-based; conditions: in vivo
# [11] = Clearance in Sprague-Dawley rat at 1 mg/kg, iv by LC-MS/MS analysis; format: ADME, organism-based; conditions: in vivo
# [12] = Mutagenicity in Salmonella typhimurium TA100 by Ames test; format: toxicity; conditions: salmonella enterica subsp. enterica serovar typhimurium
# [13] = Metabolic stability in mouse liver microsomes assessed as parent compound remaining at 1 uM preincubated for 5 mins followed by NADPH addition by LC-MS/MS analysis; format: ADME, Microsome; conditions: read-out: Stability
# [14] = Cmax in Sprague-Dawley rat at 30 mg/kg, po administered via gavage by LC-MS/MS analysis; format: ADME, organism-based; conditions: in vivo
# [15] = Drug metabolism in human liver microsomes; format: ADME, Microsome
# [16] = Time at which unbound plasma concentration required to show cellular IC50 for inhibition of smad phosphorylation in mouse H22 cell implanted BALB/c mouse at 15 mg/kg, po administered twice daily for 11 days; format: functional; conditions: time 11 day
# [17] = tested on: NIH3T3; experiment: Antiproliferative activity against mouse NIH/3T3 cells by celltitter-glo assay; format: functional, cell-based
# [18] = tested on: Mus musculus; experiment: In vivo inhibition of TGFbetaR1 in mouse H22 cell implanted BALB/c mouse assessed as reduction in Smad phosphorylation at 15 to 50 mg/kg, po administered twice daily for 11 days measured 1 to 12 hrs post-last dose by immunoblotting analysis; format: functional, organism-based; conditions: dose lower […], dose upper 50.0 mg/kg, time 11.0 day
# [19] = Half life in Sprague-Dawley rat at 1 mg/kg, iv by LC-MS/MS analysis; format: ADME, organism-based; conditions: in vivo
# [20] = Half life in CD-1 mouse at 75 mg/kg, po via gavage by LC-MS/MS analysis; format: ADME, organism-based; conditions: in vivo
# [21] = target: Voltage-gated inwardly rectifying potassium channel KCNH2 (Homo sapiens, UniProt Q12809); experiment: Inhibition of human ERG stably expressed in HEK293 cells measured at holding potential of -80 mV by manual patch clamp assay; format: toxicity, cell-based
# [22] = tested on: H22; experiment: Antitumor activity against mouse H22 cells implanted in po dosed BALB/c mouse assessed as tumor growth inhibition administered twice daily for 11 days and measured 3 times per week during compound dosing; format: functional, organism-based; conditions: dose lower […], dose upper 50.0 mg/kg, time 11.0 day
# [23] = Drug metabolism in mouse hepatocytes; format: ADME, cell-based, Hepatocyte
# [24] = AUC (0 to last) in CD-1 mouse at 5 mg/kg, po via gavage by LC-MS/MS analysis; format: ADME, organism-based; conditions: in vivo
# [25] = Oral bioavailability in Beagle dog at 5 mg/kg via gavage by LC-MS/MS analysis; format: ADME, organism-based, Canis lupus familiaris; conditions: in vivo
# [26] = tested on: CD14-positive cell; experiment: Immunostimulatory activity in human PBMC derived M-CSF stimulated CD14-positive cells assessed as reduction in IL-10 level at 0.1 to 10 uM supplemented with fresh medium containing compound on day 1, 3 and 5 followed by M-CSF/IL-4/IL-13 stimulation for 2 days with subsequent LPS induction and measured after 16 hrs; format: functional, cell-based; conditions: dose 0.1-10 µM, time 7.0 day
# [27] = tested on: HUVEC; experiment: Antiangiogenesis activity in HUVEC assessed as inhibition of vascular structure formation measured after 6 hrs by matrigel based inverted fluorescence microscopy; format: functional, cell-based; conditions: Homo sapiens, dose 0.1-10 µM
# [28] = tested on: CD14-positive cell; experiment: Immunostimulatory activity in human PBMC derived M-CSF stimulated CD14-positive cells assessed as effect on M2 macrophage polarization at 0.01 to 10 uM supplemented with fresh medium containing compound on day 1, 3 and 5 followed by M-CSF/IL-4/IL-13 stimulation; format: functional, cell-based; conditions: dose 0.01-10 µM, time 5.0 day
# [29] = target: Cytochrome P450 1A2 (Homo sapiens, UniProt P05177); experiment: Inhibition of CYP1A2 in human liver microsomes using phenacetin as substrate preincubated for 10 mins followed by NADPH regeneration system addition and measured after 10 mins by LC-MS/MS analysis; format: ADME, Microsome
# [30] = Kinetic solubility of the compound in pH 7.4 aqueous buffer; format: physicochemical; conditions: read-out: Kinetic_solubility
# [31] = Mutagenicity in Salmonella typhimurium TA98 by Ames test; format: toxicity; conditions: salmonella enterica subsp. enterica serovar typhimurium
# [32] = Half life in Beagle dog at 1 mg/kg, iv by LC-MS/MS analysis; format: ADME, organism-based, Canis lupus familiaris; conditions: in vivo
# [33] = AUC (0 to last) in Beagle dog at 1 mg/kg, iv by LC-MS/MS analysis; format: ADME, organism-based, Canis lupus familiaris; conditions: in vivo
# [34] = tested on: 4T1-Luc; experiment: Antimetastatic activity against mouse 4T1-Luc cells implanted in BALB/c mouse assessed as reduction in metastatic rate in liver at 100 mg/kg, po administered daily for 32 days and measured on day 30 to 35 by IVIS fluorescence analysis; format: functional, organism-based; conditions: time 35.0 day
# [35] = Drug metabolism in dog hepatocytes; format: ADME, cell-based, Canis lupus familiaris, Hepatocyte
# [36] = tested on: 4T1-Luc; experiment: Antimetastatic activity against mouse 4T1-Luc cells implanted in BALB/c mouse assessed as reduction in metastatic rate in forelimb at 100 mg/kg, po administered daily for 32 days and measured on day 30 to 35 by IVIS fluorescence analysis; format: functional, organism-based; conditions: time 35.0 day
# [37] = tested on: 4T1-Luc; experiment: Antimetastatic activity against mouse 4T1-Luc cells implanted in BALB/c mouse assessed as reduction in metastatic rate in kidney at 100 mg/kg, po administered daily for 32 days and measured on day 30 to 35 by IVIS fluorescence analysis; format: functional, organism-based; conditions: time 35.0 day
# [38] = target: Cytochrome P450 2C9 (Homo sapiens, UniProt P11712); experiment: Inhibition of CYP2C9 in human liver microsomes using diclofenac as substrate preincubated for 10 mins followed by NADPH regeneration system addition and measured after 10 mins by LC-MS/MS analysis; format: ADME, Microsome
# [39] = AUC (0 to last) in Sprague-Dawley rat at 1 mg/kg, iv by LC-MS/MS analysis; format: ADME, organism-based; conditions: in vivo
# [40] = Clearance in CD-1 mouse at 1 mg/kg, iv by LC-MS/MS analysis; format: ADME, organism-based; conditions: in vivo
# [41] = Protein binding in cynomolgus monkey plasma at 0.2 to 10 uM measured after 4 hrs by equilibrium dialysis based LC-MS/MS analysis; format: ADME, cell-free, Macaca fascicularis; conditions: dose 0.2-10 µM, read-out: PPB (converted)
# [42] = Drug metabolism in monkey hepatocytes; format: ADME, cell-based, Macaca mulatta, Hepatocyte; conditions: rhesus monkey
# Chain of Cytochrome P450 1A2 (P05177 whole entry): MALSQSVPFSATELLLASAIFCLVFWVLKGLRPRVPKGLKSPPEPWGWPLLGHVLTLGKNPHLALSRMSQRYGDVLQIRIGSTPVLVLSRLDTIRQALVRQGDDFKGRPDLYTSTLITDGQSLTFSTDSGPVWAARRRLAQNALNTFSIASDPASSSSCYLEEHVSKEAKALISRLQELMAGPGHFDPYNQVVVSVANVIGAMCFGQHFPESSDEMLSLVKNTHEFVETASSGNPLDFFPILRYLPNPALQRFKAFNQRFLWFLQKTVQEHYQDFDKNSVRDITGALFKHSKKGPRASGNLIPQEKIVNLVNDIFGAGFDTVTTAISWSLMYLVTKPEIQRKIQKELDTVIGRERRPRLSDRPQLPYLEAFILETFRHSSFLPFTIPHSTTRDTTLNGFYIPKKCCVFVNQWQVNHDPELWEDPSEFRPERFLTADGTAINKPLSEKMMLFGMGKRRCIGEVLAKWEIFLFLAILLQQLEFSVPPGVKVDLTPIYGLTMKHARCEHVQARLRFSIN
# Chain of Cytochrome P450 2C9 (P11712 whole entry): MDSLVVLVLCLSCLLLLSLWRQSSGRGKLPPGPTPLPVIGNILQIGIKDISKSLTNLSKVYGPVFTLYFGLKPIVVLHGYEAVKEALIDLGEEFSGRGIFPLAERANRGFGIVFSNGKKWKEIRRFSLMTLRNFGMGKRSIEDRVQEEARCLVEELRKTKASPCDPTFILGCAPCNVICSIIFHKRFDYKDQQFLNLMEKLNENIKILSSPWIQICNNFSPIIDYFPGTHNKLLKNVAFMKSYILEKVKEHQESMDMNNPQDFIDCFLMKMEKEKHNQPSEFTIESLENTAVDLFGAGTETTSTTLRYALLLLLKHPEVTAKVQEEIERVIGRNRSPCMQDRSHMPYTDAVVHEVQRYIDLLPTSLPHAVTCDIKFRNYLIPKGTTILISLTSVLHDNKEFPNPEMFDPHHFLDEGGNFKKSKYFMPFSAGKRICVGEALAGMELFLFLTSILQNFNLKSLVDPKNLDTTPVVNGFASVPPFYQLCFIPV
# Chain of Voltage-gated inwardly rectifying potassium channel KCNH2 (Q12809 whole entry): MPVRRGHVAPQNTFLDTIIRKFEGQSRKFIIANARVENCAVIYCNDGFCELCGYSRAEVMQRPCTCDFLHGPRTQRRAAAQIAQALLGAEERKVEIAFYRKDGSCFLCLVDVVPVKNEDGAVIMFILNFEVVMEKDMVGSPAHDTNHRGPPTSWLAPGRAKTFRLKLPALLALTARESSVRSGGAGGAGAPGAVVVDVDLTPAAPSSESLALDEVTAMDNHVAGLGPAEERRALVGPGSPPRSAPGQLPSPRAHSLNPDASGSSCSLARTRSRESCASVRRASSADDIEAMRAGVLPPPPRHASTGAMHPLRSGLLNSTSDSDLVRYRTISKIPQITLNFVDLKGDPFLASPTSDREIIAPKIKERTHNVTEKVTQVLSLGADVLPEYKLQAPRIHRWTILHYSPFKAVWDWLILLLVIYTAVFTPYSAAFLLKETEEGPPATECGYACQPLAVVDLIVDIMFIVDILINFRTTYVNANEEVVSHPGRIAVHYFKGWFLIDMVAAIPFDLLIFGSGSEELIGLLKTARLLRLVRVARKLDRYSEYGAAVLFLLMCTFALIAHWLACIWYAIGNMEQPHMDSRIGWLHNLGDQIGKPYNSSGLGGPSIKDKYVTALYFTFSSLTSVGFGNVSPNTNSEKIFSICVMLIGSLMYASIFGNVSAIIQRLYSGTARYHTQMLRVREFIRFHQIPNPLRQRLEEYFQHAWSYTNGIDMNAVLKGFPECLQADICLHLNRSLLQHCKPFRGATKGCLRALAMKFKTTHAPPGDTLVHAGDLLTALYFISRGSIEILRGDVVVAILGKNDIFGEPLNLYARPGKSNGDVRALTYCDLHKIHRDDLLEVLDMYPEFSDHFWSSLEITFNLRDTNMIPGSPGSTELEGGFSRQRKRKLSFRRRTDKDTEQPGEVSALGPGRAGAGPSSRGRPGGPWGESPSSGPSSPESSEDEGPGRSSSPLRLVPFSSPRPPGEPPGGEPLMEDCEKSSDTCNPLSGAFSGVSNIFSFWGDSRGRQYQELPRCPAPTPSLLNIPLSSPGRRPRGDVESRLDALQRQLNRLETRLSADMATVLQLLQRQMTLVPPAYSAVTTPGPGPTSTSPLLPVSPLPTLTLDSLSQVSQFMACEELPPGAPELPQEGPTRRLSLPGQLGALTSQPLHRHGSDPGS
# Chain of Activin receptor type-1B (Homo sapiens) (P36896 whole entry): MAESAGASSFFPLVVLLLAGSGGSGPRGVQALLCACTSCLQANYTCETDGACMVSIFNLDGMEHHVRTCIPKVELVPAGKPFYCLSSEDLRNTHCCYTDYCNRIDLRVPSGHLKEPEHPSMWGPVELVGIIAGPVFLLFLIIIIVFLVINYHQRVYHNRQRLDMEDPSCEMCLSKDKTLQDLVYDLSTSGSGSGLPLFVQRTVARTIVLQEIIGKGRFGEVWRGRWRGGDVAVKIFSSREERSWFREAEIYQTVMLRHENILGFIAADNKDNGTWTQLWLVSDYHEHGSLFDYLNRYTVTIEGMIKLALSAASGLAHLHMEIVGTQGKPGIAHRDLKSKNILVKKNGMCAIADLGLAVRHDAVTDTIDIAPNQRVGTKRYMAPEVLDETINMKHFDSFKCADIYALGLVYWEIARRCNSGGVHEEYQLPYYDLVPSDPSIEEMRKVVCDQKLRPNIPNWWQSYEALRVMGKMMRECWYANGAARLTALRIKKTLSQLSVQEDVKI
compound,measurement,setting,value
Cc1cccc(-c2nn3c(c2-c2ccc4ncnn4c2/C=C/C(N)=O)CCC3)n1,Activity,[1],Active
same,bioavailability,[2],29.9%
same,AUClast,[3],18284 nM.hr/ml
same,Drug metabolism,[4],metabolite_detected
same,Drug metabolism,[5],metabolite_detected
same,Activity,[6],Non-toxic
same,remaining at 1 µM,[7],87.5%
same,half-life,[8],2.01 h
same,Activity,[9],< 50%
same,Activity,[10],Non-toxic
same,clearance,[11],2 L/h/kg
same,Activity,[12],Non-toxic
same,remaining at 1 µM,[13],20.7%
same,Cmax,[14],9553 nM/ml
same,Drug metabolism,[15],metabolite_detected
same,T>IC50,[16],~3.5 h
same,IC50,[17],0.73 µM
same,inhibition,[18],Active; Observed A Significant Decline In Phosphorylated Smad3 Protein At 1 H But Nearly Absent At […] Hrs
same,half-life,[19],0.87 h
same,half-life,[20],0.856 h
same,IC50,[21],> 30 µM
same,TGI,[22],Dose-dependent-effect
same,Drug metabolism,[23],metabolite_detected
same,AUClast,[24],285 nM.hr/ml
same,bioavailability,[25],65.5%
same,Activity,[26],Active
same,inhibition,[27],Dose-dependent-effect
same,Activity,[28],inactive
same,IC50,[29],> 100 µM
same,solubility kinetic,[30],185 µM
same,Activity,[31],Non-toxic
same,half-life,[32],3.16 h
same,AUClast,[33],5626 nM.hr/ml
same,Activity,[34],Active
same,Drug metabolism,[35],metabolite_detected
same,Activity,[36],Active
same,Activity,[37],Active
same,IC50,[38],> 100 µM
same,AUClast,[39],1332 nM.hr/ml
same,clearance,[40],3.8 L/h/kg
same,"fraction unbound at 4 h, up to 10 µM",[41],0.522
same,Drug metabolism,[42],metabolite_detected
